Experiments:
[1] = Drug level in mouse brain at 20 mg/kg, iv after 30 mins; format: ADME, organism-based; set-up: dose 20 mg/kg, route intravenous; settings: read-out: Drug uptake
[2] = Ratio of drug level in brain to plasma in mouse at 20 mg/kg, iv after 30 mins; format: ADME, organism-based; set-up: dose 20 mg/kg, route intravenous; settings: brain and plasma, read-out: BPR
[3] = Dissociation constant, pKa of the compound; format: physicochemical

Row | concentration at 0.5 h [1] | Kp at 0.5 h [2] | pKa [3] | SMILES
1 | 15 µM | 3.9 | – | Nc1nc(C2(c3ccc(Cl)cc3)CCCC2)cs1
2 | – | – | 5.5 | COc1ccc(C(Cc2cc([N+](=O)[O-])ccc2OC)c2csc(N)n2)cc1 (stereo not given)
3 | – | – | 8.1 | COc1ccc(C(Cc2cc([N+](=O)[O-])ccc2OC)c2c[nH]c(N)n2)cc1 (stereo not given)
4 | – | – | 8.3 | COc1ccc(C(Cc2cc([N+](=O)[O-])ccc2OC)c2cn(C)c(N)n2)cc1 (stereo not given)
